Measured values as given in a melting point compilation (Tetko et al.).

Structure (SMILES)	melting point
Oc1c(-c2ccc3ccccc3c2O)ccc2ccccc12	300 °C
CN1C(=C(O)Nc2ccccn2)C(=O)c2sccc2S1(=O)=O	211 °C
O=C(Cl)c1ccccc1	-1 °C
Oc1ccc2c(c1)C13CCCCC1(O)C(C2)N(CC1CCC1)CC3 (stereo not given)	216 °C
O=C(Nc1cccc(N=[N+]([O-])c2cccc(NC(=O)c3ccccc3)c2)c1)c1ccccc1	247 °C
CS(=O)(=O)c1ccc(Cl)cc1	97 °C
OCc1c2ccccc2cc2ccccc12	163 °C
CC(=O)c1c(C)c[nH]c1C	138 °C
Cc1nc(-c2ccc(Br)cc2)no1	98 to 99 °C
C=CCNC(=S)NN	93 to 96 °C
OCc1ccco1	-14.6 °C
N#C/C(=N\Nc1cccc(O)c1)c1nc2ccccc2[nH]1	238 °C
COc1nsc(Nc2ccc(Br)cc2)n1	237 to 239 °C
Cc1ccc2c(c1)/C(=N/NC(N)=O)CC2C (stereo not given)	227 °C
C=CCC1(O)CCC2C3CCC4=CCCCC4C3CCC21C (stereo not given)	80 °C
Cc1sc(N)nc1-c1ccccc1	110 °C
CCN=C=S	-5.9 °C
CCOc1cc(-c2nccc3cc(OC)c(OC)cc23)cc(OCC)c1OCC	98 to 103 °C
O=Cc1ccc(N2CCCC2)c([N+](=O)[O-])c1	103 to 105 °C
Cn1c(=O)c(C2=NNC(=O)C2=NNc2cccc(Cl)c2)c(O)c2ccccc21	222 °C
CC12CCC3C(C(=O)CC4CC(O)CCC43C)C1CCC2O (stereo not given)	198 °C
CCNC(C)Cc1cccc(C(F)(F)F)c1 (stereo not given)	110 °C
CCCCCCCCCCCCCCCCCCCCCCCCO	75 to 77 °C
CCC(C)C(=O)NC1CCC(=O)N(CCc2ccccc2)C1=O (stereo not given)	108 °C
CCCCCNCCCCC	-7.85 °C
Cc1ncc(COP(=O)(O)O)c(C=O)c1O	255 °C

Structure (SMILES)	melting point
CON=O	-16 °C
O=C(Nc1cccc(N=Nc2cccc(NC(=O)c3ccccc3)c2)c1)c1ccccc1	285 °C
CC(=O)N[C@@H](CC(C)C)C(=O)O	178 °C
Cc1cccc(C)c1NC(=O)C(C)N (stereo not given)	256 °C
O=C(O)CCc1ccc(CCC(=O)O)cc1	229 to 233 °C
Cc1ccc(Cl)cc1O	73 °C
CCCCCCCCCCC(=O)c1ccccc1	28 to 30 °C
Cc1ccc(C(=O)CCCCl)cc1	31.5 °C
COc1cc(N)ncn1	100 °C
CCc1c(C)nc(N)nc1Cl	213 to 214 °C
O=[N+]([O-])c1ccc(C=Cc2ccc(C=Cc3ccc([N+](=O)[O-])cc3[N+](=O)[O-])cc2)c([N+](=O)[O-])c1	294 °C
ClCc1ccccc1Cn1cncn1	52 to 57 °C
CN(C)c1ccc([N+]([O-])=CC(=O)c2ccc(C(=O)C=[N+]([O-])c3ccc(N(C)C)cc3)cc2)cc1	132 to 134 °C
O=C(Cl)c1cnccn1	150 °C
Oc1ccc(Nc2ccc(O)cc2)cc1	174 °C
CC12CCC3c4ccc(OC(=O)Cc5ccc(N(CCCl)CCCl)cc5)cc4CCC3C1CCC2OC(=O)Cc1ccc(N(CCCl)CCCl)cc1 (stereo not given)	52.5 °C
C/C(=N\CCO)c1c(O)c2ccccc2n(-c2ccccc2)c1=O	201 to 202 °C
CCOC(=O)C(Br)=NNc1ccc([N+](=O)[O-])cc1	199 to 200 °C
O=C(O)C(F)C(F)(F)F (stereo not given)	28.2 to 29.2 °C
CC(=O)N1CCC(C(=O)Cl)CC1	132 °C
CCC(C(=O)C=Cc1ccccc1)C(=O)OC1CC(C)CCC1C(C)C (stereo not given)	135 °C
O=c1c(Br)c(SCc2ccccc2)cnn1-c1ccccc1	137 to 138 °C
CC12CCC(=O)C=C1CCC1C2CCC2(C)C(OCc3ccccc3)CCC12 (stereo not given)	198 to 199 °C
Cn1cc(Br)c(CCl)n1	76.5 to 78.5 °C
O=C1C(=O)c2c3ccccc3cc3cccc1c23	268 to 270 °C

Further lines, results first:

melting point	Structure (SMILES)
61.5 °C	CCC(CC)(CO)CO
226 °C	Cn1ncc2c(NNC3=CC(=O)c4ccccc4C3=O)ncnc21
212 to 213 °C	COc1ccc(-n2ncc(C(=O)O)c2C)cc1
64 °C	O=[N+]([O-])c1ccc(OCCBr)cc1
-45 °C	FC(F)(F)C(F)(F)C(F)(F)C(F)(F)C(F)(F)C(F)(F)I
237 °C	CCOC(=O)NC1C(N(C)C)C2CCC1(C)C2(C)C (stereo not given)
152 to 153 °C	CSC(S)=NCc1ccc(CN)cc1
102 to 105 °C	Cc1occc1C(=O)O
111 °C	c1ccc2c(c1)CCc1ccccc1C1(OCCO1)C21OCCO1
64 °C	N#CCc1csc2ccccc12
36 to 38 °C	CCCCCCC(O)CO (stereo not given)
115 °C	COC(=O)c1csc(C=O)c1
359 °C	S=c1nnc(-c2ccccc2)c(Nc2ccc(Br)cc2)[nH]1
69 to 71 °C	Cc1cc(N)c(Cl)cc1F
137 °C	O=C(C1=NOC2C(=O)N(c3ccc(Cl)cc3)C(=O)C12)c1ccccc1 (stereo not given)
72 °C	OCc1cc(C(F)(F)F)ccc1Br
151 °C	CCc1oc2ccccc2c1C(=O)c1cc(Br)c(O)c(Br)c1
99 °C	OC1(C#Cc2ccccc2)Cc2ccccc21 (stereo not given)
275 °C	CC1(C)CCC2(C(=O)O)CCC3(C)C(=CCC4C5(C)CCC(O)C(C)(C=O)C5CCC43C)C2C1 (stereo not given)
-16 °C	CCCCCC(O)CC (racemic)

melting point	Structure (SMILES)
128 °C	Cc1cc2c(o1)-c1c(oc3ccc(Cl)cc13)CCC2(C)c1ccccc1 (stereo not given)
56 °C	CC1CC(OC(=O)C(O)c2ccccc2)CC(C)(C)C1 (stereo not given)
293 to 295 °C	N#Cc1c(C(F)(F)F)cc(-c2cccs2)[nH]c1=O
238 to 243 °C	CCCCSCCC(N)C(=O)O (racemic)
45 °C	CC(=O)c1ccc(C2CC2Cl)cc1 (stereo not given)
245 to 247 °C	Cc1nc2ccc(Br)cn2c(=O)c1C(=O)c1ccccc1
42.8 °C	Clc1cc(Cl)cc(C2(CC(Cl)(Cl)Cl)CO2)c1 (stereo not given)
207 °C	C(#Cc1ccc(/N=C/c2ccccc2)cc1)c1ccc(/N=C/c2ccccc2)cc1
135 to 137 °C	CC(=O)c1sc(-c2ccccc2)cc1N
-37 °C	FC(F)(F)C1(F)C(F)(F)C(F)(F)C(F)(F)C(F)(F)C1(F)F
60 to 62 °C	O=[N+]([O-])c1cccc(-c2noc(CCl)n2)c1
197 to 201 °C	COc1ccc2[nH]c(C(=O)O)cc2c1
182 °C	NC(=O)Cc1nc(-c2ccc(F)cc2)cs1
277 to 283 °C	O=C(O)c1cnc2ccccc2c1
105 °C	CCCCCCSc1nc2ccc(NC(=O)COc3ccc(Cl)cc3Cl)cc2s1
25 to 32 °C	OCCCCC(O)CO (stereo not given)
332 °C	O=C(Nc1ccc(C#Cc2ccc(NC(=O)c3ccccc3)cc2)cc1)c1ccccc1
135 °C	O=Cc1cccc2c(Br)ccc([N+](=O)[O-])c12
88 °C	O=C1OC2(Cc3ccccc31)Cc1ccccc12 (stereo not given)
